Results published in patent US8450324B2, “Crystalline base of trans-1-((1R,3S)-6-chloro-3-phenylindan-1-yl)-3,3-dimethylpiperazine” (H. Lunbeck A/S, priority 2005, dated 2013).

Tests used:
[1] = system: pigs sensitized to haloperidol; experiment: dystonia in pigs sensitized to haloperidol; format: in vivo
[2] = molecular target: dopamine (DA) D1 receptors (Homo sapiens, UniProt P21728); conditions: as described in PCT/DK04/000546; cited from earlier work
DA D2 receptors = DA D2 receptors (Homo sapiens, UniProt P14416); conditions: as described in PCT/DK04/000546; cited from earlier work
alfa1 adrenoceptors = conditions: as described in PCT/DK04/000546; cited from earlier work
dopamine D1 receptors = dopamine D1 receptors (Homo sapiens, UniProt P21728); conditions: as described in PCT/DK04/000546; cited from earlier work
dopamine D2 receptors = dopamine D2 receptors (Homo sapiens, UniProt P14416); conditions: as described in PCT/DK04/000546; cited from earlier work
[3] = molecular target: serotonin 5-HT2a receptors (Homo sapiens, UniProt P28223); conditions: as described in PCT/DK04/000546; cited from earlier work
CYP2D6 = CYP2D6 (Homo sapiens, UniProt P10635); conditions: as described in PCT/DK04/000546; cited from earlier work
QT interval = conditions: rabbit model; as described in PCT/DK04/000546; cited from earlier work

Chain of dopamine (DA) D1 receptors (P21728 whole entry): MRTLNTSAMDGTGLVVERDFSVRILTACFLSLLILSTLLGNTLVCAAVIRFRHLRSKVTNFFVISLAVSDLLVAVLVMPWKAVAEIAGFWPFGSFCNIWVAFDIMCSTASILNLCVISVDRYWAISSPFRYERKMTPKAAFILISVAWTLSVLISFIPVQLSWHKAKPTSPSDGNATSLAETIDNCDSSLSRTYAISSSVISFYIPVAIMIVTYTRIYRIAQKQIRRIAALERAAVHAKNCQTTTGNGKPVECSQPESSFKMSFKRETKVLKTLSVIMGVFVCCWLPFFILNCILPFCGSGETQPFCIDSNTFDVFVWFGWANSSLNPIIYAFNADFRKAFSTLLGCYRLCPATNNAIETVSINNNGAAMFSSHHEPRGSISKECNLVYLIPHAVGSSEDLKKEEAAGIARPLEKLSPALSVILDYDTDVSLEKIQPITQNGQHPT
Chain of dopamine D1 receptors (P21728 whole entry): as above
Chain of DA D2 receptors (P14416 whole entry): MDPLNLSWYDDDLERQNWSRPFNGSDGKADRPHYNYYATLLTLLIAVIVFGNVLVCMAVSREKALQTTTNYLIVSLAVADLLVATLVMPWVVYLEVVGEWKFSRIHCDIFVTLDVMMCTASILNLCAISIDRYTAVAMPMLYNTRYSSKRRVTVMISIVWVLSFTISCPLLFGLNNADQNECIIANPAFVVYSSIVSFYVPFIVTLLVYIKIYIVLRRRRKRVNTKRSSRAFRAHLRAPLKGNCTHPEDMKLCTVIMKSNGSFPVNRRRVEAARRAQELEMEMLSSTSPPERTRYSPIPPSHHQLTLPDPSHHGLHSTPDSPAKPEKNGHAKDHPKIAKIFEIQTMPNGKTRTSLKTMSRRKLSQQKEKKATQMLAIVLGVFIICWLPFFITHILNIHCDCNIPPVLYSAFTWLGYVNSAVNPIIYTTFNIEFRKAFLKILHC
Chain of dopamine D2 receptors (P14416 whole entry): as above
Chain of CYP2D6 (P10635 whole entry): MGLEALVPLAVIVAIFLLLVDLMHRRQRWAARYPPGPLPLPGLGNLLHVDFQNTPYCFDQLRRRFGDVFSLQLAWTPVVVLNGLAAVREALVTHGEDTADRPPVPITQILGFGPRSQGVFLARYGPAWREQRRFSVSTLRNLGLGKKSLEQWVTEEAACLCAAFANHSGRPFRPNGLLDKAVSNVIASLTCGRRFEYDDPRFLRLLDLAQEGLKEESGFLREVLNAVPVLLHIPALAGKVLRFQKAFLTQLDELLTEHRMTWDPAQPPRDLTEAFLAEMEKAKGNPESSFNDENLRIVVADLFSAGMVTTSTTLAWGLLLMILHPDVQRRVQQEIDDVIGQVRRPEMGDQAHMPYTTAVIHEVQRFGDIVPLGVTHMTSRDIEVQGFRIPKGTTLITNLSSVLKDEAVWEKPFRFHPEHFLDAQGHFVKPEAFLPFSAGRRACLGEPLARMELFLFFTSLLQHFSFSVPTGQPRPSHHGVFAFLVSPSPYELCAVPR
Chain of serotonin 5-HT2a receptors (P28223 whole entry): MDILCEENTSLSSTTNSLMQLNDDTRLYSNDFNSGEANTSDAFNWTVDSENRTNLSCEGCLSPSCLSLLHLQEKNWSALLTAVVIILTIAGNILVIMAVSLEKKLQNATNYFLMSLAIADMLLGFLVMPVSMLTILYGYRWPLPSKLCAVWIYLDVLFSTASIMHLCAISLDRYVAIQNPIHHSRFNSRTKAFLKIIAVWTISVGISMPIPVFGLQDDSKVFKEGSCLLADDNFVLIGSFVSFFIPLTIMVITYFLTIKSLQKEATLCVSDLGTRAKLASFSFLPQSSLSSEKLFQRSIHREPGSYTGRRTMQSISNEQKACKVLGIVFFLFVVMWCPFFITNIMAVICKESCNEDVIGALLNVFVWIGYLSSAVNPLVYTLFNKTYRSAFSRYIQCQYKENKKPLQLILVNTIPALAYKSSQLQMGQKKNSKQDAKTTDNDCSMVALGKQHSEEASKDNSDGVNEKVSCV

**Q.** Which “induction of dystonia (EPS liability)” value [1] does the source give for `CC1(C)CN([C@@H]2C[C@@H](c3ccccc3)c3ccc(Cl)cc32)CCN1` [Compound I, trans-1-((1R,3S)-6-chloro-3-phenylindan-1-yl)-3,3-dimethylpiperazine] here?
**A.** did not induce dystonia

**Q.** What about the “affinity for dopamine (DA) D1 receptors” value [2] of the same molecule?
**A.** high affinity

**Q.** What about the “affinity for DA D2 receptors” value (DA D2 receptors) of the same molecule?
**A.** high affinity

**Q.** What about the “affinity for alfa1 adrenoceptors” value (alfa1 adrenoceptors) of the same molecule?
**A.** high affinity

**Q.** And the “functional activity at dopamine D1 receptors” value (dopamine D1 receptors)?
**A.** antagonist

**Q.** And the “functional activity at dopamine D2 receptors” value (dopamine D2 receptors)?
**A.** antagonist

**Q.** What about the “functional activity at serotonin 5-HT2a receptors” value [3] of the same molecule?
**A.** antagonist

**Q.** And the “inhibition of CYP2D6” value (CYP2D6)?
**A.** relatively weak inhibitor

**Q.** What about the “effect on the QT interval” value (QT interval) of the same molecule?
**A.** relatively low effect
